Here are results for 2 compounds from patent US5912183A, “Peptide inhibitors of mitogenesis and motogenesis” (Pharmacia & Upjohn S.p.A., priority 1993, dated 1999).

pKd: −log10 of the molar value. Residues, ends and D or L forms follow the SMILES beside them.

For one test, the target named is T1, GST-SH2 domain of Shc (Homo sapiens, UniProt P29353).
T1 construct: using the Shc SH2 domain, expressed in bacteria as a GST-fusion protein; made in house; host or cells: bacteria
T1 sequence (P29353 488-579 limits assumed): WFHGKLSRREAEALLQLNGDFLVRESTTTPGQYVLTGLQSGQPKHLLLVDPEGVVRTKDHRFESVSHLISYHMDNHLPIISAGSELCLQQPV
The test is described as follows: BIAcore binding of Shc SH2 domain to immobilised phosphopeptides. Conditions: biosensor; avidin-immobilized biotinylated phosphopeptide. Here is the method: FIG. 13. […] The same concentration of Shc-SH2 was injected over two biosensor surfaces on which two phosphopeptides had been immobilised. Y1356P is derived from the sequence VNATY^1356 VNVK (SEQ. ID NO: 28) of the receptor tail; Y317P is derived from the sequence DDPSY^317 VNVQ (SEQ. ID NO: 27). Note that both peptides contain the same core (YVNV) but (SEQ. ID NO: 3) different upstream sequences. The initial rapid increase in the response is due to the "bulk effect" of the injected solution.
In vitro binding studies using GST-fusion protein. The region of the Grb2 cDNA corresponding to its SH2 domain (from nucleotide position 256 to nucleotide position 551) was isolated using polymerase chain reaction (PCR) and cloned into the BamHI-EcoRI sites of the bacterial expression plasmid pGEX-2T (GST-Grb2). Cultures of bacteria expressing GST, GST-Grb2 or GST-Shc (Segatto et al., Oncogene 2105-2112 (1993)) were grown for 3-4 hours at 37° C. in LB medium containing 1 mM IPTG. Bacteria were centrifuged, resuspended in 1/100 volume of ice-cold PY buffer, without Triton™ and lysed by sonication. After adding Triton X-100 to 1%, lysates were clarified by centrifugation. Recombinant proteins were purified onto glutathione Sepharose™ (Pharmacia) and used as such for binding assays. For each reaction, about 5 μg of GST, GST-Grb2 or GST-Shc bound to glutathione Seharose was incubated for 2 hrs. at 4° C. with […] of appropriate cell lysate made in PY buffer. Protein complexes were washed 5 times in ice cold PY buffer, eluted and denatured by heating at 95° C. for 3 min in Laemmli buffer, resolved on SDS-PAGE and analyzed by immunoblot.
The basic principles of operation as well as the methodology for obtaining kinetic measurements of SH2 domain interactions using the BIAcore instrument (Pharmacia) have been previously described in detail (Panayotou et al., Mol. Cell. Biol. 13: 3567-3576 (1993), Ponzetto et al., Mol. Cell. Biol. 13: 4600-4608 (1993)). Purified GST-SH2 domains or intact proteins were desalted in BIAcore running buffer (20 mM Hepes, pH 7.4, 150 mM NaCl, 3.4 mM EDTA, 0.005% Tween 20 and 4 mM DTT) and injected over avidin-immobilized, biotinylated phosphopeptides. The amount of phosphopeptides immobilized was normalized by measuring the binding of anti-phosphotyrosine antibodies. Association was measured over a range of protein concentrations and dissociation of bound material was allowed to occur either in buffer flow or upon injection of 20 μM competing, non-biotinylated phosphopetide. Peptide and protein concentrations were calculated by amino acid analysis on an Applied Biosystem amino acid analyzer.
The direct interaction between the SH2 domain of Shc and phosphotyrosine Y^1349 or Y^1356 was confirmed by real-time Biosensor analysis (Panayotou et al., ibid; Felder et al., Mol. Cell. Biol. 13: 1449-1455 (1993)).
The Shc sequence Y^317 VNV (SEQ. ID NO: 3) is identical to one of the two Shc binding sites present in the SF/HGF receptor (FIG. 8). […] The biosensor was used to compare binding of the Shc SH2 domain to the phosphopeptide DDPSY^317 VNVQ (SEQ. ID NO: 27), present on the Shc molecule, and to the phosphopeptide VNATY^1356 VNVK (SEQ. ID NO: 28), present on the SF/HGF receptor. […] Thus Shc-Shc association is not favoured in vivo, and the Shc phosphotyrosine residue Y^317 is available to bind other molecules, rather than to mediate the formation of concatamers.
In general terms: SPR reads the build-up and loss of mass on a sensor chip optically.

A further test deals with T2, Grb2 SH2 domain (Homo sapiens, UniProt P62993).
T2 construct: corresponding to its SH2 domain (from nucleotide position 256 to nucleotide position 551); made in house; host or cells: bacteria (pGEX-2T)
Nature of the test: BIAcore real-time binding of Grb2 GST-SH2 fusion protein to immobilized phosphopeptide. Here is the method: FIG. 15. The Grb2 SH2 domain binds to the Y^317 docking site of Shc. Panel A: sensorgrams obtained by injection of a range of Gst-SH2.Grb2 concentrations over the immobilised phosphopeptide derived from the Shc sequence DDPSY^317 VNVQ (SEQ. ID NO: 27). Panel B: effect of competing peptide on the dissociation rate. At the end of the Grb2 injection, buffer or […] of non-biotinylated phosphopeptide were injected. Panel C: analysis of the data shown in panel A. The figure on the left is a plot of the rate of binding versus the relative response for the six different sensorgrams. In the figure on the right, the slopes of each line are plotted against the concentration: the new slope gives the value of the association rate constant.
In vitro binding studies using GST-fusion protein. The region of the Grb2 cDNA corresponding to its SH2 domain (from nucleotide position 256 to nucleotide position 551) was isolated using polymerase chain reaction (PCR) and cloned into the BamHI-EcoRI sites of the bacterial expression plasmid pGEX-2T (GST-Grb2). Cultures of bacteria expressing GST, GST-Grb2 or GST-Shc (Segatto et al., Oncogene 2105-2112 (1993)) were grown for 3-4 hours at 37° C. in LB medium containing 1 mM IPTG. […] Protein complexes were washed 5 times in ice cold PY buffer, eluted and denatured by heating at 95° C. for 3 min in Laemmli buffer, resolved on SDS-PAGE and analyzed by immunoblot.
The basic principles of operation as well as the methodology for obtaining kinetic measurements of SH2 domain interactions using the BIAcore instrument (Pharmacia) have been previously described in detail (Panayotou et al., Mol. Cell. Biol. 13: 3567-3576 (1993), Ponzetto et al., Mol. Cell. Biol. 13: 4600-4608 (1993)). […] Association was measured over a range of protein concentrations and dissociation of bound material was allowed to occur either in buffer flow or upon injection of 20 μM competing, non-biotinylated phosphopetide. Peptide and protein concentrations were calculated by amino acid analysis on an Applied Biosystem amino acid analyzer. […]

The subject of test [1] is binding of PI 3-kinase holoenzyme to HGF/SF receptor. Nature of the test: Competition of phosphopeptides with PI 3-kinase holoenzyme (A549 cytosolic extracts) for association with recombinant HGF/SF receptor (PI 3-kinase activity assay). Details: species or system human. Conditions: phosphopeptide 10 μM; A549 cytosolic extracts; FIG. 3. Here is the method: FIG. 3. Inhibition of binding of PI 3-kinase holoenzyme to HGF/SF receptor by tyrosine-phosphorylated peptides. The phosphopeptides which efficiently out-competed p85 (FIG. 1) were assayed for the ability to interfere with binding of the PI 3-kinase holoenzyme to the HGF/SF receptor. Cytosolic extracts from three days-starved A549 cells were pre-incubated with each of the phosphopeptides (10 μM) prior to incubation with the immobilized recombinant HGF/SF receptor. The presence of receptor-associated PI 3-kinase in the immunocomplexes was determined by PI 3-kinase activity assay, as described in Materials and Methods of Example 4. The position of the phosphatidylinositol-3-phosphate (PIP) product of the PI 3-kinase reaction is indicated.
In vitro association experiments. Sf9 cells expressing the recombinant HGF/SF receptor (approximately 4×10^6 cells/point) were lysed 36 hours after infection in buffer A (10 mM Tris-HCl buffer pH 7.5, 10% glycerol, 1% Triton X-100, 150 mM NaCl, 5 mM EDTA), supplemented with 0.2 mM phenyl-methylsulfonyl fluoride, 1 μg/ml leupeptin, 0.1 TIU/ml aprotinin and 1 μg/ml pepstatin. […]
The presence of the p85 subunit of the PI 3-kinase in the receptor immunoprecipitate was determined by: i) labelling of the receptor and associated proteins with [γ-^32 P]ATP by in vitro kinase assay; ii) Western immunoblotting; iii) PI 3-kinase activity assay. […]

In test [2] the target is T3, binding of p85 to HGF/SF receptor (Bos taurus, UniProt P23727).
T3 construct: made in house; host or cells: Sf9 insect cells (baculovirus), for both p85 and the receptor
Nature of the test: Competition of phosphopeptides with p85 for association with immobilized recombinant HGF/SF receptor (in vitro kinase assay readout). Further details: species or system human. Here is the method: FIG. 1. Inhibition of binding of p85 to HGF/SF receptor by tyrosine-phosphorylated peptides. Recombinant HGF/SF receptor was purified by immunoprecipitation from baculovirus-infected Sf9 cells using a rabbit polyclonal antiserum and phosphorylated with cold ATP. Lysates of Sf9 cells expressing p85 were pre-incubated with each of the phosphopeptides (10 μM). The lysates were then allowed to associate with immobilized recombinant HGF/SF receptors. Following association the complex was washed and receptor-bound p85 was detected by an in vitro kinase assay, as described in Materials and Methods of Example 4. The phosphopeptides are identified by the number of the amino terminal tyrosine.
FIG. 2. Inhibition of binding of p85 to HGF/SF receptor with different concentrations of tyrosine-phosphorylated peptides. The phosphopeptides which efficiently out-competed p85 binding to the HGF/SF receptor (FIG. 1) were used at increasing concentrations (10 nM, 100 nM, 1 μM from left to right) to define their relative affinities for p85. Conditions of the experiment were as in FIG. 1. Phosphopeptide 1365 was used as a negative control for p85 interaction.
In vitro association experiments. Sf9 cells expressing the recombinant HGF/SF receptor (approximately 4×10^6 cells/point) were lysed 36 hours after infection in buffer A (10 mM Tris-HCl buffer pH 7.5, 10% glycerol, 1% Triton X-100, 150 mM NaCl, 5 mM EDTA), supplemented with 0.2 mM phenyl-methylsulfonyl fluoride, 1 μg/ml leupeptin, 0.1 TIU/ml aprotinin and 1 μg/ml pepstatin. Lysates were clarified at 15,000×g at 4° C. for 15 minutes and the supernatants immunoprecipitated after 2 hours incubation with anti-Met antibodies coupled to Protein A-Sepharose. Immunocomplexes were washed three times with buffer A, once with buffer B (10 mM Tris-HCl pH 7.4, 100 mM NaCl, 1 mM EDTA) and once with buffer C (25 mM 4-(2-hydroxyethyl)-1-piperazine-ethanesulfonic acid (HEPES) buffer pH 7.2, 100 mM NaCl, 5 mM MgCl2). Samples were pre-phosphorylated by incubation for 15 minutes at 25° C. in buffer C with 10 μM unlabelled ATP and then washed three times with cold buffer A supplemented with 1 mM sodium ortho-vanadate. Association between the immobilized receptor and the baculovirus-expressed p85 was carried out as previously described (Bardelli, A., et al., Oncogene 7: 1973-1978 (1992)). For the association experiments with the PI 3-kinase holoenzyme three days serum-starved A549 cells (approx. 2×10^6 cells/point) were used as a source of PI 3-kinase. A549 cells were Dounce-homogenized in MOPS buffer (20 mM 3-(N-morpholino)propanesulfonic acid) (pH 7.5), 1 mM MgCl2, 0.1 mM EDTA, 200 mM sucrose, 1 mM sodium ortho-vanadate), supplemented with 0.2 mM phenylmethylsulfonyl fluoride, 1 μg/ml leupeptin, 0.1 TIU/ml aprotinin and 1 μg/ml pepstatin. Homogenates were centrifuged at 100,000×g for 20 minutes at 4° C. When checking for the ability of phosphopeptides to block the association with the receptor, cell lysates were pre-incubated with the phosphopeptides for 1 hour at 4° C. prior to incubation with the immobilized recombinant HGF/SF receptor. Following association, immunocomplexes were washed three times with buffer A, twice with buffer D (0.5M LiCl, 100 mM Tris-HCl pH 7.6), and twice with buffer B.
The presence of the p85 subunit of the PI 3-kinase in the receptor immunoprecipitate was determined by: i) labelling of the receptor and associated proteins with [γ-^32 P]ATP by in vitro kinase assay; ii) Western immunoblotting; iii) PI 3-kinase activity assay.
In vitro kinase assay. Receptor-associated proteins were labelled in 20 μl of buffer C, in the presence of 10 μCi [γ-^32 P]ATP (specific activity 7,000 Ci/Mm; Amersham) at 25° C. for 15 minutes. The reaction was stopped by adding 1 ml of ice-cold Buffer A without protease inhibitors. Samples were washed three times with cold buffer A. The labelled immunocomplexes were eluted from Protein A-Sepharose in boiling Laemmli buffer. […]

T2 sequence (P62993 60-152 limits assumed): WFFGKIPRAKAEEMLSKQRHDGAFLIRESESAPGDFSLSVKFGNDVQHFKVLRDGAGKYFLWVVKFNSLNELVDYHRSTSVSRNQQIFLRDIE
T3 sequence (P23727 whole entry): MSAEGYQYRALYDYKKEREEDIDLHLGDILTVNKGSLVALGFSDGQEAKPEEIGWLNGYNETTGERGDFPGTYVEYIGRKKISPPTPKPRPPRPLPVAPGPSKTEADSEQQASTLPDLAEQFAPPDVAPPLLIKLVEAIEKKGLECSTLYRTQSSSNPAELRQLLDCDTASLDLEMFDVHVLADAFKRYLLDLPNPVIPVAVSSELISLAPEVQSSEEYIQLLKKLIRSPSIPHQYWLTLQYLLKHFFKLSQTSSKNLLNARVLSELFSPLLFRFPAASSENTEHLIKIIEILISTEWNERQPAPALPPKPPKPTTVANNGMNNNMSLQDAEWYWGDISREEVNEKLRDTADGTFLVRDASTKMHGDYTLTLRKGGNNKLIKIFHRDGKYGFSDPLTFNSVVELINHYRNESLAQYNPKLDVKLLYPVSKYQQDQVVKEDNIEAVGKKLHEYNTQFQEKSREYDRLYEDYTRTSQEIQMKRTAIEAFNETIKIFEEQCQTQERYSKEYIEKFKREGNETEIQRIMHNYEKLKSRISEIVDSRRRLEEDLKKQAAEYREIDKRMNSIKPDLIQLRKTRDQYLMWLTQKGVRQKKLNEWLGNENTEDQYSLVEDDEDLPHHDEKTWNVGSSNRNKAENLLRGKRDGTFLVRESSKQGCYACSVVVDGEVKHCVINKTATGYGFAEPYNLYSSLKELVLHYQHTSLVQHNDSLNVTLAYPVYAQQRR

As to `CC(C)[C@H](NC(=O)[C@H](CC(N)=O)NC(=O)[C@@H](NC(=O)[C@H](Cc1ccc(OP(=O)(O)O)cc1)NC(=O)[C@H](CO)NC(=O)[C@@H]1CCCN1C(=O)[C@H](CC(=O)O)NC(=O)[C@@H](N)CC(=O)O)C(C)C)C(=O)N[C@@H](CCC(N)=O)C(=O)O` [DDPSY^317* VNVQ, H-Asp-Asp-Pro-Ser-Tyr*-Val-Asn-Val-Gln-OH] (HELM PEPTIDE1{D.D.P.S.[O=C([C@H](Cc1ccc(OP(=O)(O)O)cc1)N[*:1])[*:2]].V.N.V.Q}$$$$V2.0), the “Binding of Shc SH2 domain to immobilised phosphopeptide” value at GST-SH2 domain of Shc is recorded as “much more weakly”. Moreover, the kon on Grb2 SH2 domain (Grb2 GST-SH2 over immobilized phosphopeptide, read-out: K^ass (association rate constant)) was determined as 260000 M⁻¹ s⁻¹. Also, the pKd on Grb2 SH2 domain (from Kdiss and K^ass, read-out: Overall affinity) is 6.82. Besides, the “Kdiss (dissociation rate)” value on Grb2 SH2 domain (measured in buffer and in the presence of competing phosphopeptide to prevent re-binding) was determined as 0.04 S^-1.
For `CC(C)[C@H](NC(=O)[C@H](CC(N)=O)NC(=O)[C@@H](NC(=O)[C@H](Cc1ccc(OP(=O)(O)O)cc1)NC(=O)[C@@H](NC(=O)[C@H](C)NC(=O)[C@H](CC(N)=O)NC(=O)[C@@H](NC(=O)[C@H](Cc1c[nH]cn1)NC(=O)[C@@H](NC(=O)[C@@H](N)Cc1ccc(OP(=O)(O)O)cc1)C(C)C)C(C)C)[C@@H](C)O)C(C)C)C(=O)N[C@@H](CCCCN)C(=O)O` [H-Tyr*-Val-His-Val-Asn-Ala-Thr-Tyr*-Val-Asn-Val-Lys-OH] (HELM PEPTIDE1{[N[C@@H](Cc1ccc(OP(=O)(O)O)cc1)C(=O)[*:2]].V.H.V.N.A.T.[O=C([C@H](Cc1ccc(OP(=O)(O)O)cc1)N[*:1])[*:2]].V.N.V.K}$$$$V2.0), the “Interference with binding of PI 3-kinase holoenzyme to HGF/SF receptor” value in test [1] is on record as “more efficient at displacing the PI 3-kinase holoenzyme from the HGF/SF receptor than those including just one of these residues”. Further, in test [2] (phosphopeptide 10 μM, p85 from Sf9 lysates, FIG. 1), the “Inhibition of binding of p85 to HGF/SF receptor” value was “completely prevented p85 binding”. Also, the “Efficiency at outcompeting p85 (relative affinity for p85)” value in test [2] (phosphopeptides at 10 nM, 100 nM, 1 μM, FIG. 2, rank order SEQ. ID NO: 19, then 22, 20, 18) is given as “comparable to H-Tyr*-Val-Asn-Val-Lys-Cys-Val-Ala-OH”.
